The record followed here is patent US20240092739A1, “COMPOUNDS AND METHODS OF USE” (Ferro Therapeutics, Inc, priority 2020, published 2024).

Test [1] concerns 786-O (renal cell carcinoma) cells. In words: Cell proliferation (Alamar Blue) assay, 786-O cells. The format is cell-based. The settings on record: Homo sapiens. How it is done: (§1) Cell viability assay was performed to assess the potency of the compounds in human cancer cell lines 786-0 (renal cell carcinoma) and SJSA-1 (osteosarcoma). Additional cell lines, such as pancreatic cancer cell lines (Panc 02.13, BxPC-3, Panc 12, Panc 02.03, Panc 6.03, PSN-1, HPAC, and Capan-1), prostate cancer cell lines (PC-3, DU145, […], NCI-H660, 1PH1 LNCaP, BM-1604, and MDA PCa 2b), etc., can be tested in a similar method.
(§2) Cells (SJSA-1, 786-0 and A431) were seeded (5000 cells/100 μL/well) in 96-well tissue culture plate and incubated at 37° C./500 CO2 for 16-24 hours. The cells were then treated with compounds (25 μL of 5×). The compound concentrations were 10-0.0005 μM prepared in 3-fold serial dilutions with final DMSO concentration of 1%. The plates were then incubated for 24 h at 37° C./[…] in a moist environment. Then Alamar Blue™ reagent (final concentration 1×-12.5 μL) was added to each well and incubated for 1.5 hours at 37° C./500 CO2. The plates were read on fluorescence reader at 540 nm excitation and 590 nm emission wavelengths. The IC50 values were subsequently determined using a sigmoidal dose-response curve (variable slope) in GraphPad Prism® 5 software. Tables A-3 and B-11 show cell proliferation data for exemplary compounds as described herein.
(In general: Alamar Blue is a resazurin reagent that responds to reducing activity.)

Test [2] relates to SJSA-1 (osteosarcoma) cells. In words: Cell proliferation (Alamar Blue) assay, SJSA-1 cells. The format is cell-based. The following applies: Homo sapiens, 24 h compound treatment. The method, then: as §1, §2
A further test relates to A431 cells. In words: Cell proliferation (Alamar Blue) assay, A431 cells. The format is cell-based. The following applies: Homo sapiens. The method, then: as §1, §2
The subject of test [3] is 786-O cells + Ferrastatin-1. In words: GPX4 inhibition assay: cell proliferation (Alamar Blue) in 786-O cells with ferrostatin rescue. It is filed as cell-based, human. The method, then:
as §2
Studies have shown that lipophilic antioxidants, such as ferrostatin, can rescue cells from GPX4 inhibition-induced ferroptosis. For instance, mesenchymal state GPX4-knockout cells can survive in the presence of ferrostatin, however, when the supply of ferrostatin is terminated, these cells undergo ferroptosis (see, e.g., Viswanathan et al., Nature 547:453-7, 2017). […] Accordingly, the ability of a molecule to induce ferroptotic cancer cell death, and that such ability is admonished by the addition of ferrostatin, is clear indication that the molecule is an GPX4 inhibitor. Cell proliferation data for exemplary compounds with and without ferrostatin can be seen in Table A-3.

Where [4] appears, read: 786-0, 786-O cells, 24 h compound treatment, Alamar Blue, read-out: IC50 (μM) 786-O.
The mark [5] stands for this setting: A-431, A431 cells, 24 h compound treatment, Alamar Blue, read-out: IC50 (μM) A431.
[6] abbreviates: 786-0, 786-O cells, 24 h compound incubation, Alamar Blue, read-out: Cell proliferation IC50 (μM) 786-O.
[7] abbreviates: 786-O cells with Ferrastatin-1 (rescue), read-out: Cell proliferation IC50 (μM) 786-O + Ferrastatin-1.
Setting [8] is: A-431, A431 cells, 24 h compound incubation, Alamar Blue, read-out: Cell proliferation IC50 (μM) A431.
[9] abbreviates: 786-O cells in presence of Ferrastatin-1 (rescue), read-out: IC50 (μM) 786-O + Ferrastatin-1.

Each structure is given as a SMILES string. Read-outs that look alike come from different tables or passages of the source.

Take `C#CC(=O)N1[C@@H](CCCC)Cc2cc(OC)ccc2[C@@H]1c1ccc(NC(=O)c2ccnc(C)c2)cc1` [Compound B-49, N-(4-((1S,3S)-3-butyl-6-methoxy-2-propioloyl-1,2,3,4-tetrahydroisoquinolin-1-yl)phenyl)-2-methylisonicotinamide]: the IC50 in test [1] (setting [4]) was 0.037 µM; in test [2], 0.2 µM.
For `C#CC(=O)N1[C@@H](CCCC)Cc2cc(OC)ccc2[C@H]1c1ccc(NC(=O)C2CCC2)cc1` [Compound B-19, N-(4-((1R,3S)-3-butyl-6-methoxy-2-propioloyl-1,2,3,4-tetrahydroisoquinolin-1-yl)phenyl) cyclobutane carboxamide], the figures for the IC50 (in test [1] (setting [4]); with A431 cells (setting [5]); in test [2]) were 0.569 µM, 6.3 µM and 0.52 µM, respectively.
`C#CC(=O)N1[C@@H](CCCC)Cc2cc(OC)ccc2[C@@H]1c1ccc(NC(=O)C2CCC2)cc1` [Compound B-20, N-{4-[(1S,3S)-3-butyl-6-methoxy-2-(prop-2-ynoyl)-1,2,3,4-tetrahydroisoquinolin-1-yl]phenyl}cyclobutanecarboxamide]: the IC50 stood at 0.02 µM in test [1] (setting [4]), 6.14 µM in the test with A431 cells (setting [5]) and 0.021 µM in test [2].
With `C#CC(=O)N1[C@@H](CCCC)Cc2cc(OC)ccc2[C@@H]1c1ccc(NC2CCC2)cc1` [Compound B-22, 1-((1S,3S)-3-butyl-1-(4-(cyclobutylamino)phenyl)-6-methoxy-3,4-dihydroisoquinolin-2(1H)-yl)prop-2-yn-1-one], the IC50 in test [1] (setting [4]) was 0.041 µM; with A431 cells (setting [5]) it was 9.96 µM; in test [2] it was 0.05 µM.
As for `CCCC[C@H]1Cc2cc(OC)ccc2[C@H](c2ccc(NC34CC5CC(CC(C5)C3)C4)cc2)N1C(=O)C#C[Si](C)(C)CCCOC(C)=O` [Compound A-41], the results for the IC50 (in test [1] (setting [6]); in test [3] (setting [7]); with A431 cells (setting [8])) were 0.0125 µM, 1.86 µM and 0.563 µM, respectively.
Turning to `COc1ccc2c(c1)C[C@H](C1CCC1)N(C(=O)C#C[Si](C)(C)C)[C@@H]2c1ccc(NC23CC4CC(CC(C4)C2)C3)cc1` (stereo in doubt) [Compound A-8, 1-((1R,3R)-1-(4-(((3S,5S,7S)-adamantan-1-yl)amino)phenyl)-3-cyclobutyl-6-methoxy-3,4-dihydroisoquinolin-2(1H)-yl)-3-(trimethylsilyl)prop-2-yn-1-one], the IC50 in test [1] (setting [6]) came out at 0.064 µM; in test [3] (setting [7]), 5.05 µM; in the test with A431 cells (setting [8]) it was 4.79 µM.
Turning to `CCCC[C@H]1Cc2c([nH]c3ccccc23)[C@H](c2ccc(NC3CCC3)cc2)N1C(=O)C#C[Si](C)(C)C` [Compound A-2], the IC50 in test [1] (786-0, 24 h, read-out: Cell proliferation IC50 (μM) 786-O) was 0.009 µM; in test [3] (setting [7]), 8.63 µM; in the test on A431 cells (A-431, 24 h, read-out: Cell proliferation IC50 (μM) A431) it was over 10 µM.
Turning to `C#CC(=O)N1[C@@H](CC(C)C)Cc2cc(OC)ccc2[C@@H]1c1ccc(NC23CC4CC(CC(C4)C2)C3)cc1` [Compound B-71], the IC50 amounted to 0.066 µM in test [1] (setting [4]), 1.71 µM in test [3] (setting [9]) and 1.18 µM in the test on A431 cells (setting [5]).
Taken in the same sequence, the figures for `C#CC(=O)N1[C@@H](CCCC)Cc2cc(OCCO)ccc2[C@@H]1c1ccc(NC23CC4CC(CC(C4)C2)C3)cc1` [Compound B-60] were 0.005 µM, 2.18 µM and 2.12 µM.
Taken in the same sequence, the figures for `C#CC(=O)N1[C@@H](CCCC)Cc2cc(C(N)=O)ccc2[C@@H]1c1ccc(NC23CC4CC(CC(C4)C2)C3)cc1` [Compound B-61] were 0.012 µM, 1.28 µM and 3.54 µM.
For `C#CC(=O)N1[C@@H](CCCC)Cc2c(OC)cccc2[C@@H]1c1ccc(NC23CC4CC(CC(C4)C2)C3)cc1` [Compound B-69], the IC50 in test [1] (setting [4]) worked out at 0.015 µM; in test [3] (setting [9]), 2.47 µM; in the test on A431 cells (setting [5]) it was 1.79 µM.
Turning to `C#CC(=O)N1[C@@H](CCCC)Cc2cc(C(F)(F)F)ccc2[C@@H]1c1ccc(NC23CC4CC(CC(C4)C2)C3)cc1` [Compound B-77], the IC50 in test [1] (setting [4]) came out at 0.012 µM; in test [3] (setting [9]), 1.21 µM; in the test with A431 cells (setting [5]) it was 0.557 µM.
Taken in the same sequence, the figures for `C#CC(=O)N1[C@@H](CCC(C)C)Cc2cc(OC)ccc2[C@@H]1c1ccc(NC23CC4CC(CC(C4)C2)C3)cc1` [Compound B-72] were 0.036 µM, 1.6 µM and 1.7 µM.
As for `C#CC(=O)N1[C@@H](CCCC)Cc2cc(OC(F)(F)F)ccc2[C@@H]1c1ccc(NC23CC4CC(CC(C4)C2)C3)cc1` [Compound B-79], the IC50 in test [1] (setting [4]) was found to be 0.017 µM; in test [3] (setting [9]), 1 µM; in the test with A431 cells (setting [5]), 7 µM.
As for `CCCC[C@H]1Cc2cc(OC)ccc2[C@@H](C23CC(F)(C2)C3)N1C(=O)C#C[Si](C)(C)C` [Compound A-10, 1-((1R,3S)-3-butyl-1-(3-fluorobicyclo[1.1.1]pentan-1-yl)-6-methoxy-3,4-dihydroisoquinolin-2(1H)-yl)-3-(trimethylsilyl)prop-2-yn-1-one], the IC50 is 0.075 µM in test [1] (setting [6]), over 1 µM in test [3] (setting [7]) and over 1 µM with A431 cells (setting [8]).
As for `C#CC(=O)N1[C@@H](CCCC)Cc2cc(OCCOC)ccc2[C@@H]1c1ccc(NC23CC4CC(CC(C4)C2)C3)cc1` [Compound B-70], the IC50 is 0.012 µM in test [1] (setting [4]), 1.59 µM in test [3] (setting [9]) and 2.08 µM with A431 cells (setting [5]).
